Reference: publication PMC2096561 (2004)

Biological target: GPR80 (GPR99, proposed P2Y15) (Homo sapiens, UniProt Q96P68)
Assay: [3H]inositol phosphate accumulation in GPR80-expressing CHO and HEK293 cells
Assay type: cell-based

GPR80 (GPR99, proposed P2Y15), sequence (Q96P68 whole entry): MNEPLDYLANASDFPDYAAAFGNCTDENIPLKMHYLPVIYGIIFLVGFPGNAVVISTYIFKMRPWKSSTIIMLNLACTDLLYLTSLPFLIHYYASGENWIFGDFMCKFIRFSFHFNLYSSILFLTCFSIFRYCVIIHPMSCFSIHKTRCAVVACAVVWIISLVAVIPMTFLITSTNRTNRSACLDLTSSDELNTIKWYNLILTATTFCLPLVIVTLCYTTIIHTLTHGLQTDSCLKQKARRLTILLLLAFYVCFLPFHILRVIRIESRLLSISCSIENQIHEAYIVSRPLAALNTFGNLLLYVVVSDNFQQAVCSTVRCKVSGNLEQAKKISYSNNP

Question: Which EC50 does the source give for `O=C(O)CCC(=O)C(=O)O` [α-ketoglutarate] here?
Answer: The EC50 was 140 ± 10 µM.
